# Marks after values point to notes of the source that are not given here.
# Legend:
# [1] = format: in vivo; settings: mouse, 1 g/kg in a single dose
# Method: No toxicity is found even when the above-mentioned effective ingredient usable in the present invention is administered in an amount effective for the exhibition of its action.
# NGF [2] = assay: NGF content in rat tissues after forced oral administration of xanthohumol (enzyme immunoassay); format: in vivo, rat (SD); settings: excised on fifth day, average ± standard error, n=4
# Method: (§1) (2) Male SD rats were purchased from Japan SLC, Inc., and used for an experiment from 7-week old after preliminary rearing. Xanthohumol described in Example 1 was suspended in distilled water, and the rats were subjected to forced oral administration of the suspension at a ratio of 3 and 10 mg of xanthohumol respectively per 1 kg of body weight. In addition, the suspension was intraperitoneally administered at a ratio of 1, 3 or 10 mg of xanthohumol. A control group was administered with distilled water in the same manner as above. In either group, four rats were administered once a day for consecutive days. In the case of the forced oral administration, the submandibular gland and the brain were excised on the fifth day from the beginning of administration. In the case of the intraperitoneal administration, ischiadic nerve and gastrocneminal muscle were excised at 4 hours after the end of administration on the third day. The excised tissues were homogenized and centrifuged, and the NGF contents in the supematant were determined by enzyme immunoassay method (manufactured by Roche).
# (§2) The numbers in the tables represent an average value ± standard error for the four cases. In addition, an asterisk * symbol means that the group has a significant difference at a significance level of 5% or less as compared to the control group according to Student-t test, and a triple asterisk *** symbol means that the group similarly has a significant difference at a significance level of 0.1% or less.
# NGF [3] = assay: NGF content in rat tissues after intraperitoneal administration of xanthohumol (enzyme immunoassay); format: in vivo, rat (SD); settings: excised 4 hours after administration on third day, average ± standard error
# Method: as §1, §2
# [4] = Water maze test in rats with ibotenic acid-induced learning and memory disorder; format: in vivo, rat (Wistar); settings: forced oral 10 mg/kg once a day, average ± standard error, n=9
# Method: Male Wistar rats were purchased from Japan SLC, Inc., and used for an experiment from 7-week old after preliminary rearing. Ibotenic acid was administered intracerebrally to cause a learning and memory disorder. Nine rats were used for each group, and administration was begun one week after the administration of ibotenic acid. Xanthohumol of Example 1 was suspended in distilled water, and the rats were subjected to forced oral administration with the suspension at a ratio of 10 mg of xanthohumol per 1 kg of body weight. A control group was administered with distilled water in the same manner as above. The rats were administered once a day for consecutive days. A water maze test was carried out on and after the seventh day from the beginning of the administration to evaluate ability of recognizing spaces and directions.
# The water maze test method was carried out as follows. Water of about 22° C. was charged in a large-scaled water vessel. A platform was set at a height of 2 cm below the water level, and rats were made to enter into water. The rats in water swim around so as to escape from water and take refuge in the platform. The time period from entering into water to taking refuge in the platform was recorded. After taking the refuge, the rats were made to observe surrounding environments on the platform. […]
# [5] = forced oral 10 mg/kg once a day
# [6] = intraperitoneal 1 mg/kg once a day
# [7] = intraperitoneal 3 mg/kg once a day
# [8] = intraperitoneal 10 mg/kg once a day
smiles,measurement,setting,value
"COc1cc(O)c(CC=C(C)C)c(O)c1C(=O)/C=C/c1ccc(O)cc1 [Xanthohumol, xanthohumol]",cases of deaths,[1],no cases of deaths are found
same,NGF Content in Brain of Rat,NGF [2]; forced oral 3 mg/kg once a day,508.2 ± 95.1 pg/g tissue
same,NGF Content in Submandibular Gland of Rat,NGF [2]; forced oral 3 mg/kg once a day,8.88 ± 0.98*** ng/g tissue
same,NGF Content in Brain of Rat,NGF [2]; [5],524.9 ± 200.7 pg/g tissue
same,NGF Content in Submandibular Gland of Rat,NGF [2]; [5],13.39 ± 0.65*** ng/g tissue
same,NGF Content in Gastrocneminal Muscle of Rat,NGF [3]; [6],48.0 ± 3.4 pg/g tissue
same,NGF Content in Ischiadic Nerve of Rat,NGF [3]; [6],386.4 ± 30.1* pg/g tissue
same,NGF Content in Gastrocneminal Muscle of Rat,NGF [3]; [7],53.9 ± 4.0 pg/g tissue
same,NGF Content in Ischiadic Nerve of Rat,NGF [3]; [7],351.6 ± 26.8 pg/g tissue
same,NGF Content in Gastrocneminal Muscle of Rat,NGF [3]; [8],56.8 ± 3.3 pg/g tissue
same,NGF Content in Ischiadic Nerve of Rat,NGF [3]; [8],445.7 ± 59.1 pg/g tissue
same,"Time Period from entering water to taking refuge in the platform, First Trial",[4]; on and after seventh day,140.7 ± 14.7 s
same,"Time Period from entering water to taking refuge in the platform, Second Trial",[4]; second trial on next day,71.3 ± 10.8 s
